Experiments:
Mcl-1 ΔNΔC [1] = target: T1, Mcl-1 ΔNΔC (Homo sapiens, UniProt Q07820); experiment: Fluorescence polarization direct binding of FITC-SAHBs to MCL-1ΔNΔC; conditions: FPA
T1 construct: GST (N, cleaved yes); made in house; host or cells: Escherichia coli BL21 (DE3), pGEX-4T
Method: (§1) Binding assays were performed as previously described (Pitter et al., Methods Enzymol 446, 387 (2008). Briefly, FITC-SAHB (50 nM) was added to serial dilutions of FPLC-purified recombinant protein in binding buffer (50 mM Tris, 100 mM NaCl, pH 8.0). For competition assays, serial dilutions of acetylated MCL-1 SAHBs were mixed with FITC-BAK SAHB (25 nM), followed by addition of MCL-1ΔNΔC (100 nM) diluted in binding buffer (50 mM Tris, 100 mM NaCl, pH 8.0). Multiwell plates were incubated in the dark at room temperature until equilibrium was reached and fluorescence polarization (mP units) was measured by microplate reader (SpectraMax, Molecular Devices). For direct binding experiments, dissociation constants (KD) were calculated by nonlinear regression analysis of dose-response curves using Prism software (Graphpad). For competition experiments, Ki values were determined by nonlinear regression analysis of dose-response curves using a one-site competition model.
To measure the binding activity of SAHBs for MCL-1, fluorescence polarization binding assays were performed (FIG. 8). […] Fluorescence polarization was measured on a BMG POLARstar Optima or Spectramax and dissociation constants determined by nonlinear regression analysis using Prism software 4.0 (Graphpad) (FIG. 8). […]

recombinant BCL-XLΔC = recombinant BCL-XLΔC (Homo sapiens, UniProt Q07817); experiment: Fluorescence polarization direct binding of FITC-SAHBs to BCL-XLΔC; conditions: FPA
Method: as §1
Recombinant carboxy-terminal deleted anti-apoptotic proteins were expressed using the pGEX-4T vector, and purified as described for rMCL-1. The purified proteins were incubated with FITC-SAHBs, and binding affinities were analyzed by fluorescence polarization assay as described above. […] Optionally, design and optimization of tailored SAHB compounds for anti-apoptotic targeting also employed computational modeling.

Mcl-1 ΔNΔC [2] = target: T1, Mcl-1 ΔNΔC; experiment: MCL-1 Specific Binders | Mcl-1 ΔNΔC
Description: Table printed on a drawing sheet, FIGURE 9 A
Head of the field: MCL-1 Specific Binders | Mcl-1 ΔNΔC
(A) illustrates a table of KD values for MCL-1-specific and pan-anti-apoptotic binding SAHBs.
First copying reader's note: KD values with their ± error in the same cell; each column is one anti-apoptotic target protein.
Where the first naming reader finds the target: head: Mcl-1 ΔNΔC

T1 sequence (Q07820 172-327, stated change not applied): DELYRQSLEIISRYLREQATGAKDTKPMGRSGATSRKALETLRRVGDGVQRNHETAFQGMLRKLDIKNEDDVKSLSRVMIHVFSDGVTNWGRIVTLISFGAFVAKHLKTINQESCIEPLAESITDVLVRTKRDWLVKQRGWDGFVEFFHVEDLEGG
Sequence of recombinant BCL-XLΔC (Q07817 1-209, stated change not applied): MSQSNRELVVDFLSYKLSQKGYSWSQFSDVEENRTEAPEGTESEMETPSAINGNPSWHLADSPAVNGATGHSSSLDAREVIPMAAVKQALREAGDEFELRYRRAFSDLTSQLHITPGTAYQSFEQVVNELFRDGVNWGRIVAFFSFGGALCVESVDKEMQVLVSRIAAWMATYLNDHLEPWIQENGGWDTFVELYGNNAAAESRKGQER

Molecule: CC(C)C[C@H](NC(=O)[C@H](C)NC(=O)[C@@H](N)CCCCN)C(=O)N[C@@H](CCC(=O)O)C(=O)N[C@H](C(=O)N[C@@H](CC(C)C)C(=O)N[C@@H](CCCNC(=N)N)C(=O)N[C@@]1(C)CCCC=CCCC[C@@](C)(C(=O)N[C@@H](Cc2ccccc2)C(=O)N[C@@H](CCC(N)=O)C(=O)N[C@@H](CCCNC(=N)N)C(=O)N[C@@H](CC(N)=O)C(=O)N[C@@H](Cc2c[nH]cn2)C(=O)N[C@@H](CCC(=O)O)C(=O)N[C@H](C(=O)N[C@@H](C)C(=O)N[C@@H](Cc2ccccc2)C(N)=O)[C@@H](C)O)NC(=O)[C@H](CC(=O)O)NC(=O)CNC(=O)[C@H](C(C)C)NC1=O)[C@@H](C)O [MCL-1 SAHBA V220F]
- MCL-1ΔNΔC binding activity (Mcl-1 ΔNΔC [1]): binds to both MCL-1 and BCL-XL
- BCL-XL binding (recombinant BCL-XLΔC): binds to both MCL-1 and BCL-XL

Molecule: LEVESXTQLXRFGDKLNFRQKL [NOXA SAHBB]
- Kd (Mcl-1 ΔNΔC [2]): 109 ± 32 nM

From patent US9079970B2, “Methods and compositions for specific modulation of MCL-1” (Dana Farber Cancer Institute, Inc., priority 2008, dated 2015)
